The text below walks through data of patent US20110129548A1, “Immunopotentiating Compositions Comprising Beta-1, 3/1, 6-D-Glucan and Uses Thereof” (BioAgra, LLC, priority 2006, published 2011).

The test system of assay [1] is macrophage cell line RAW264 cells. Nature of the assay: Hydrogen peroxide production by RAW264 macrophages. The format is cell-based, murine. Conditions: 1 h; for Fluorescence: control 229.00 ± 4.54. As for the experimental part:
To determine hydrogen peroxide production, macrophage cell line RAW264 cells were plated into 96 well tissue culture plates and cultured until confluent in phenol red-free alpha-minimum essential medium, supplemented with 10% fetal bovine serum. Once confluence was reached, the media was removed, the cells were washed, and substrate and test substances were added. To insure cell number uniformity at confluence, cell numbers were determined in 8 wells; if the number of cells differed by more than 10% the plate was not used. Following an incubation period of exactly 1h the reaction was stopped and resulting fluorescence measured with an ELISA-reader at λmax, excitation=312 nm, λmax, emission=420 nm. Zymosan, the residue from a hot alcoholic extraction of yeast, and curdlan, a linear beta-1,3-D-glucan, were used as positive controls.

Assay [2] relates to blood cells (WBC, RBC, MON, PMN). Briefly: Effect of Vitamin D plus beta-1,3/1,6-D-glucan on blood cells (differential cell count). The format is in vivo. The note with it: rabbits, capsules for 9 weeks. On the procedure:
To determine the effect of Vitamin D plus beta-1,3/1,6-D-glucan (AGRASTIM®) on the immunocompetence of an animal, rabbits (10 per group) were given capsules of equal weight comprising 10 mg of beta-1,3/1,6-D-glucan (AGRASTIM®), 10 mg of beta-1,3/1,6-D-glucan (AGRASTIM®) plus 50 IU of Vitamin D, or 50 IU Vitamin D for 9 weeks. At the end of 9 weeks the number of white blood cells (WBCs), red blood cells (RBCs), mononuclear cells (MONs), and polymorphonuclear cells (PMNs) were determined by differential cell count.

Where [3] appears, read: percent with the control set to 100.

For CURDLAN, the H2O2-Release in assay [1] (dose 10 μg/assay) was 0.76 nmol; in assay [1] (dose 50 μg/assay), 1.06 nmol. Moreover, the Fluorescence in assay [1] (dose 10 μg/assay) is given as 254.00 ± 1.02 arbitrary units; in assay [1] (dose 50 μg/assay), 345.00 ± 6.48 arbitrary units.
For Vitamin D, in assay [2], the “increase of PMNs” value is 29%, the “increase of WBCs above control” value was “no effect” and the “increase of the number of RBCs” value is “neither beta-1,3/1,6-D-glucan alone nor Vitamin D had significant effects”. In addition, in assay [2] (setting [3]), the MON came out at 83%, the PMN stood at 129%, the RBC came out at 84% and the WBC came out at 100%.
